Experimental data reported in US5043322A, “Cyclic GRF analogs” (The Salk Institute for Biological Studies, priority 1988, dated 1991).
Where a SMILES comes first, the peptide text is derived from it. Bridges are numbered along the chain shown (N, C = ends). [ ]: non-standard residue; d: D form. NMeY = CN[C@@H](Cc1ccc(O)cc1)C(=O)O; Nle = CCCC[C@H](N)C(=O)O

Assays:
[1] = tested on: urethane-anesthetized male rats; experiment: in vivo GH secretion after intravenous injection, blood GH by radioimmunoassay; parameters: species or system rat; conditions: compared with 25 μg hGRF(1-40)--OH
Experimental: In addition to the in vitro tests for secretion of growth hormone, in vivo experiments inject the synthetic peptides intravenously into urethane-anesthetized male rats and determine that they trigger GH secretion. Blood samples are taken immediately prior to, and 10, 45 and 90 minutes after injections, and GH levels in blood are measured by radioimmunoassay. […] Dosages between about 400 nanograms and about 50 micrograms of these cyclic peptides per Kg. of body weight are considered to be effective in causing GH secretion.

[2] = tested on: cells of rat pituitary glands; experiment: in vitro GH release from cultured rat pituitary cells, side-by-side with standard hGRF(1-40)--OH; type: cell-based; conditions: equimolar concentrations, incubation 3 to 4 hours, ir GH in culture medium by radioimmunoassay
Experimental: All of these synthetic peptides are considered to be biologically active and potentially useful for stimulating the release of GH by the pituitary.
To determine the relative effectiveness of certain representative synthetic peptides to promote the release of growth hormone, in vitro assays are carried out using synthetic hGRF(1-40)--OH as a standard in side-by-side comparison with equimolar concentrations of the representative analogs which have been synthesized. Cultures are used which include cells of rat pituitary glands removed some three to five days previously. Such cultures are considered optimal for the secretion of growth hormone and are used for the comparative testing, in the general manner described in Vale et al. Endocrinology, 91, 562-572 (1972) and as more particularly described in Vale et al. Endocrinology, 112, 553-1555 (1983). Incubation with the substance to be tested is carried out for 3 to 4 hours, and aliquots of the culture medium are removed and processed to measure their contents in immunoreactive GH(ir GH) by a well-characterized radioimmunoassay.

Q: For `CCCC[C@@H]1NC(=O)[C@H]([C@@H](C)CC)NC(=O)[C@H](NC(=O)[C@H](Cc2c[nH]cn2)NC(=O)[C@H](CC(C)C)NC(=O)[C@H](CC(C)C)NC(=O)[C@H](CCCCN)NC(=O)[C@H](CCCNC(=N)N)NC(=O)[C@H](C)NC(=O)[C@H](Cc2ccc(O)cc2)NC(=O)[C@H](CC(C)C)NC(=O)[C@H](CCC(N)=O)NC(=O)[C@H](C)NC(=O)[C@H](CC(C)C)NC(=O)[C@@H](NC(=O)[C@H](CCCNC(=N)N)NC(=O)[C@H](CCCNC(=N)N)NC(=O)[C@H](Cc2ccc(O)cc2)NC(=O)[C@H](CO)NC(=O)[C@H](CO)NC(=O)[C@@H](NC(=O)[C@H](Cc2ccccc2)NC(=O)[C@@H](NC(=O)[C@H](C)NC(=O)[C@H](CC(=O)O)NC(=O)[C@H](C)NC(=O)[C@H](Cc2ccc(O)cc2)NC)[C@@H](C)CC)[C@@H](C)O)[C@@H](C)CC)CSSC[C@@H](C(N)=O)NC(=O)[C@H](CC(N)=O)NC1=O` [Example I, [N^a MeTyr^1, Ala^15, D-Cys^25, Nle^27,Cys^29]-rGRF(1-29)-NH2] (H-[NMeY]ADAIFTSSYRRILAQLYARKLLH[dC]I[Nle]NC-NH2; disulfide 25-29), which “in vivo response (blood GH) at 10 minutes” value ([1]; dosage of 1 μg) is on record?
A: greater than a 25 μg dose of hGRF(1-40)--OH

Q: Which “biological potency for the secretion of GH relative to hGRF(1-40)--OH” value [2] does the source give for `CCCC[C@@H]1NC(=O)[C@H]([C@@H](C)CC)NC(=O)[C@@H](NC(=O)[C@H](Cc2c[nH]cn2)NC(=O)[C@H](CC(C)C)NC(=O)[C@H](CC(C)C)NC(=O)[C@H](CCCCN)NC(=O)[C@H](CCCNC(=N)N)NC(=O)[C@H](C)NC(=O)[C@H](Cc2ccc(O)cc2)NC(=O)[C@H](CC(C)C)NC(=O)[C@H](CCC(N)=O)NC(=O)[C@H](C)NC(=O)[C@H](CC(C)C)NC(=O)[C@@H](NC(=O)[C@H](CCCNC(=N)N)NC(=O)[C@H](CCCNC(=N)N)NC(=O)[C@H](Cc2ccc(O)cc2)NC(=O)[C@H](CO)NC(=O)[C@H](CO)NC(=O)[C@@H](NC(=O)[C@H](Cc2ccccc2)NC(=O)[C@@H](NC(=O)[C@H](C)NC(=O)[C@H](CC(=O)O)NC(=O)[C@H](C)NC(=O)[C@H](Cc2ccc(O)cc2)NC)[C@@H](C)CC)[C@@H](C)O)[C@@H](C)CC)CSSC[C@H](C(N)=O)NC(=O)[C@H](CC(N)=O)NC1=O` [Example IA, [N^a MeTyr^1,Ala^15,Cys^25,Nle^27,D-Cys^29]-rGRF(1-29)-NH2] (H-[NMeY]ADAIFTSSYRRILAQLYARKLLHCI[Nle]N[dC]-NH2; disulfide 25-29) here?
A: about twice

Q: And the “in vivo response (blood GH) at 10 minutes” value ([1]; dosage of 5 μg)?
A: greater than a 25 μg dose of hGRF(1-40)--OH
